Measurements published in patent publication US20240197746A1, “COMBINATION THERAPY WITH A MEK INHIBITOR AND A SRC INHIBITOR FOR THE TREATMENT OF COLORECTAL CANCER” (Yeda Research and Development Co. Ltd., priority 2021, published 2024).
Where two headings read alike, the source gives them in different places.

System: fresh & PDX human tumors
Test: EVOC drug dose calibration, cell death by H&E viability score
Type: cell-based
Text: Tissue acquisition and EVOC. Female NOD scid gamma (NSG) mice (4-6 months old) bearing PDX tumors were purchased from Jackson Laboratories. Mice arrived to the facility when the tumors had grown sufficiently to be apparent (approximately 60 mm^3) and were maintained until the maximal permitted tumor volume of 1,000 mm^3 was achieved. Mice were killed with CO2, and tumor tissues were removed and placed in ice-cold PBS. Tumors were sliced into 250-μm-thick slices using a vibratome (VF300, Precisionary Instruments) and placed in six-well plates on titanium grids (MA0036, Alabama R&D) with 4 ml of DMEM/F12 medium (supplemented with 5% fetal calf serum, 100 IU ml^−1 penicillin with 100 μg ml−1 streptomycin, 2.5 μg ml^−1 amphotericin B, […] gentamicin sulfate and 100 μl ml−1 l-glutamine). Tissue was cultured at 37° C. with 5% CO2 and 80% O2 on an orbital shaker (TOU-120N, MRC) at 70 r.p.m. The following day, tissue was treated with drugs as indicated for 96 h (medium was changed after 48 h and fresh drug was added), followed by formalin fixing and paraffin embedding after overnight fixation in 4% paraformaldehyde. Note that duplicates and triplicates were assigned randomly to mimic heterogeneity within the tumor tissue in vivo.
Human tumor tissue, either from primary colon cancer or metastatic lesions, was obtained from individuals at the time of operation or at the time of tissue core biopsy. After resection, the fresh tissue was placed in ice-cold PBS for immediate transfer to the lab for EVOC. Specimens were coded anonymously before their arrival to the lab. Forty-six individuals were enrolled in the study and had sufficient tumor volume at operation or accessible tumors for core biopsy to allow us to perform EVOC. In one individual, both primary and metastatic cancer tissue was obtained so that 47 samples in total were studied. In 14 individuals, there was either adenoma or not enough tumor tissue for evaluation. In an additional three individuals, the tissue was necrotic before slicing and EVOC. In one individual, the tissue culture was contaminated, and in one individual, the fixation was insufficient. Finally, 29 CRC primary or metastatic tumors from 28 individuals were analyzed by EVOC.
Histologic sections were assessed for viability by an independent blinded pathologist. Tissue viability was scored on a scale from 0 to 4, where 0 is less than 10% viable tissue and 4 is more than 90% viable tissue. Scores of 3, 2 and 1 correspond to tissue viability of 61-90%, 31-60% and 10-30%, respectively.
Determination of drug treatment concentrations. To determine the concentration of each drug to be used in the ex vivo screen, we first calibrated the effect of multiple concentrations of each drug on PDX CRC tumors. For the screens, we selected the doses that were minimally effective in killing tissue after 4 d of treatment as evaluated by H&E staining. […] In addition, when testing targeted therapies, the present inventors validated that the chosen drug concentrations were effective in inhibiting their targets. This was evaluated by immunohistochemical staining after 24 h of treatment (FIGS. 11A-C). Here again, the lowest drug concentration that was enough to inhibit the drug target was used.

[1] = EVOC, concentrations that demonstrate a difference in amount of cell death in individual patient tissues

SMILES | Range eliciting differential response [1] | Range eliciting differential response
N.N.[Cl][Pt][Cl] [Cisplatin] | 0.3-30^ uM | –
Cl.Cl.O=S(=O)(NCCNC/C=C/c1ccc(Br)cc1)c1cccc2cnccc12 [H89 2HCl, H-89 dihydrochloride] | 1 to 16 µM | –
COc1ccc(C2=N[C@@H](c3ccc(Cl)cc3)[C@@H](c3ccc(Cl)cc3)N2C(=O)N2CCNC(=O)C2)c(OC(C)C)c1 [Nutlin] | 4 to 16 µM | –
O=C1[O][Pt]2([NH][C@@H]3CCCC[C@H]3[NH]2)[O]C1=O [Oxaliplatin] | – | 2 to 64 µM
Cc1cc(Nc2cc(N3CCN(C)CC3)nc(Sc3ccc(NC(=O)C4CC4)cc3)n2)n[nH]1 [VX-680] | 1 to 16 µM | –
